Reference: US11739070B2, “C5A receptor modulators” (IDORSIA PHARMACEUTICALS LTD, priority 2018, dated 2023)

These compounds were tested against T1, C5AR1 (Homo sapiens, UniProt P21730) (assay: hC5a DISCO IC50 assay (PathHunter beta-arrestin, antagonist mode)). Conditions: CHO-K1 C5AR1 beta-arrestin cell line; antagonist vs 1-10 nM C5a agonist; geometric mean values; read-out: C5aR IC50.
T1 construct: host or cells: CHO-K1
T1 sequence (P21730 1-350): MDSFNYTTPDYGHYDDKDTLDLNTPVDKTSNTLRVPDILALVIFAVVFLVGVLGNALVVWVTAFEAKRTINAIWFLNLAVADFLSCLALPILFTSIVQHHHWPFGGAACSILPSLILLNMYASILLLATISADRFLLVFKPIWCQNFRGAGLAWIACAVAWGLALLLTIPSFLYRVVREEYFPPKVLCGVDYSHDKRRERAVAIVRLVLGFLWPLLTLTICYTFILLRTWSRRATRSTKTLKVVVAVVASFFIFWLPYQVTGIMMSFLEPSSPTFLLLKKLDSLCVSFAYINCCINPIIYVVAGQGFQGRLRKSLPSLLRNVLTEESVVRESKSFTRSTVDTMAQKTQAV
Type: cell-based
Procedure, shortened: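 Antagonist added first, then 1-10 nM C5a agonist; cells incubated 1.5 h at 37 °C. Beta-arrestin signal developed with PathHunter detection reagent, 45 min at RT. IC50 in nmol/l from serial antagonist dilutions, reported as geometric mean of several measurements.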
Work on `COc1cccc2c1n(Cc1ccccc1C(F)(F)F)c(=O)n2[C@@H]1CCN(c2c(F)cccc2CN2CCC2)C1` [Example 108, 1-[(R)-1-(2-Azetidin-1-ylmethyl-6-fluoro-phenyl)-pyrrolidin-3-yl]-4-methoxy-3-(2-trifluoromethyl-benzyl)-1,3-dihydro-benzoimidazol-2-one] yielded an IC50 of 0.36 µM.
`COc1ccccc1Cn1c(=O)n([C@@H]2CCN(c3c(F)cccc3C#N)C2)c2cccc(OC)c21` [Example 109, 3-Fluoro-2-{(R)-3-[4-methoxy-3-(2-methoxy-benzyl)-2-oxo-2,3-dihydro-benzoimidazol-1-yl]-pyrrolidin-1-yl}-benzonitrile] was tested, and the IC50 was 0.061 µM.
Work on `COc1ccccc1Cn1c(=O)n([C@@H]2CCN(c3c(C)cccc3F)C2)c2cccc(OC)c21` [Example 110, 1-[(R)-1-(2-Fluoro-6-methyl-phenyl)-pyrrolidin-3-yl]-4-methoxy-3-(2-methoxy-benzyl)-1,3-dihydro-benzoimidazol-2-one] yielded an IC50 of 0.006 µM.
Compound `COc1cccc2c1n(Cc1nccnc1C(F)(F)F)c(=O)n2[C@@H]1CCN(c2c(F)cccc2C#N)C1` [Example 111, 3-Fluoro-2-{(R)-3-[4-methoxy-2-oxo-3-(3-trifluoromethyl-pyrazin-2-ylmethyl)-2,3-dihydro-benzoimidazol-1-yl]-pyrrolidin-1-yl}-benzonitrile] has an IC50 of 0.264 µM.
In the case of `COc1nccnc1Cn1c(=O)n([C@@H]2CCN(c3c(F)cccc3C#N)C2)c2cccc(OC)c21` [Example 112, 3-Fluoro-2-{(R)-3-[4-methoxy-3-(3-methoxy-pyrazin-2-ylmethyl)-2-oxo-2,3-dihydro-benzoimidazol-1-yl]-pyrrolidin-1-yl}-benzonitrile], the IC50 is reported as 0.511 µM.
`COc1ncncc1Cn1c(=O)n(C2CCN(c3c(F)cccc3C#N)CC2)c2cccc(OC)c21` [Example 113, 3-Fluoro-2-{4-[4-methoxy-3-(4-methoxy-pyrimidin-5-ylmethyl)-2-oxo-2,3-dihydro-benzoimidazol-1-yl]-piperidin-1-yl}-benzonitrile] was tested, and the IC50 was 2.24 µM.
For `COc1ncncc1Cn1c(=O)n([C@@H]2CCN(c3c(F)cccc3C#N)C2)c2cccc(OC)c21` [Example 114, 3-Fluoro-2-{(R)-3-[4-methoxy-3-(4-methoxy-pyrimidin-5-ylmethyl)-2-oxo-2,3-dihydro-benzoimidazol-1-yl]-pyrrolidin-1-yl}-benzonitrile], the IC50 was 1.54 µM.
`COc1cccc2c1n(Cc1ccccc1C(F)(F)F)c(=O)n2[C@@H]1CCN(c2c(F)cccc2CN2CCOCC2)C1` [Example 115, 1-[(R)-1-(2-Fluoro-6-morpholin-4-ylmethyl-phenyl)-pyrrolidin-3-yl]-4-methoxy-3-(2-trifluoromethyl-benzyl)-1,3-dihydro-benzoimidazol-2-one] was tested, and the IC50 was 0.021 µM.
`COc1cccc2c1n(Cc1ccccc1C(F)(F)F)c(=O)n2[C@@H]1CCN(c2c(F)cccc2CN2CCCC2)C1` [Example 116, 1-[(R)-1-(2-Fluoro-6-pyrrolidin-1-ylmethyl-phenyl)-pyrrolidin-3-yl]-4-methoxy-3-(2-trifluoromethyl-benzyl)-1,3-dihydro-benzoimidazol-2-one] showed an IC50 of 0.165 µM.
Compound `COc1cccc2c1n(Cc1cncnc1C(F)(F)F)c(=O)n2C1CCN(c2c(F)cccc2C#N)CC1` [Example 117, 3-Fluoro-2-{4-[4-methoxy-2-oxo-3-(4-trifluoromethyl-pyrimidin-5-ylmethyl)-2,3-dihydro-benzoimidazol-1-yl]-piperidin-1-yl}-benzonitrile] has an IC50 of 0.308 µM.
`Cc1cccc(C)c1N1CC[C@@H](n2c(=O)n(Cc3ccccc3C(F)(F)F)c3c(NCCO)nccc32)C1` [Example 118, 1-[(R)-1-(2,6-Dimethyl-phenyl)-pyrrolidin-3-yl]-4-(2-hydroxy-ethylamino)-3-(2-trifluoromethyl-benzyl)-1,3-dihydro-imidazo[4,5-c]pyridin-2-one] was tested, and the IC50 was 0.201 µM.
With `Cc1cccc(C)c1N1CC[C@@H](n2c(=O)n(Cc3ccccc3C(F)(F)F)c3c(OCCO)nccc32)C1` [Example 119, 1-[(R)-1-(2,6-Dimethyl-phenyl)-pyrrolidin-3-yl]-4-(2-hydroxy-ethoxy)-3-(2-trifluoromethyl-benzyl)-1,3-dihydro-imidazo[4,5-c]pyridin-2-one] the IC50 was 0.012 µM.
